Here are results for 2 compounds from patent US20250304645A1, “Prodrugs of GLP-1 Polypeptide and Uses Thereof” (Novo Nordisk A/S, priority 2022, published 2025).

A short description of this data set: Prodrug to drug conversion half-life in vitro in PBS at pH 7.4 and 37° C. (UPLC-UV-MS). The following applies: prodrug to parent drug conversion, PBS pH 7.4, 37° C., first order T½. Type of data set: physicochemical. The protocol: The assay was performed to investigate the conversion half-life of prodrug to drug of the prodrugs of the invention.
Peptide stock solutions were prepared by dissolving freeze-dried powder in PBS buffer to a target of 200 μM. PBS-buffer was Dulbecco's Phosphate Buffered Saline without CaCl2 and MgCl2, gibco 14190-094 adjusted to pH=7.4. The pH of the peptide stock solutions was adjusted to 7.4 with 0.02 M HCl or 0.02M NaOH. Samples were filled in Agilent HPLC vials with fixed insert. Vials were capped to prevent evaporation. The HPLC vials were incubated at 37° C. and samples were withdrawn at different time points over a period of 2 weeks, flash frozen at −80° C., and stored at −20° C. until analysis.
Sample analysis was carried out using UPLC coupled to UV detection at 215 nm and MS (UPLC-UV-MS). One μl of sample was injected on to a Waters Acquity UPLC with a flow-through-needle injection system and on to a Waters Acquity CSH C18 column (1*150 mm), with a particle size of 1.7 μm and held at 55° C. A flow-rate of 100 μl/min was delivered with a Binary solvent manager pump having 0.1% formic acid in water as solvent A and 0.1% formic acid in acetonitrile as solvent B. Gradient elution was carried out using 15-32% B from 0 to 4 min followed by 32 to 48% B from 4 to 54 min. […]

For the compound `CC[C@H](C)[C@H](NC(=O)[C@H](Cc1ccccc1)NC(=O)[C@H](CCC(=O)O)NC(=O)[C@H](CCCCNC(=O)COCCOCCNC(=O)COCCOCCNC(=O)CC[C@H](NC(=O)CCCCCCCCCCCCCCCCC(=O)O)C(=O)O)NC(=O)[C@H](C)NC(=O)[C@H](C)NC(=O)[C@H](CCC(N)=O)NC(=O)CNC(=O)[C@H](CCC(=O)O)NC(=O)[C@H](CC(C)C)NC(=O)[C@H](Cc1ccc(O)cc1)NC(=O)[C@H](CO)NC(=O)[C@H](CO)NC(=O)[C@@H](NC(=O)[C@H](CC(=O)O)NC(=O)[C@H](CO)NC(=O)[C@@H](NC(=O)[C@H](Cc1ccccc1)NC(=O)[C@@H](NC(=O)CNC(=O)[C@H](CCC(=O)O)NC(=O)C(C)(C)NC(=O)[C@H](Cc1c[nH]cn1)NC(=O)[C@@H]1CSCN1C(=O)[C@@H](N)CCCCNC(=O)COCCOCCNC(=O)COCCOCCNC(=O)CC[C@H](NC(=O)CCCCCCCCCOc1cccc(C(=O)O)c1)C(=O)O)[C@@H](C)O)[C@@H](C)O)C(C)C)C(=O)N[C@@H](C)C(=O)N[C@@H](Cc1c[nH]c2ccccc12)C(=O)N[C@@H](CC(C)C)C(=O)N[C@H](C(=O)N[C@@H](CCCNC(=N)N)C(=O)NCC(=O)N[C@@H](CCCNC(=N)N)C(=O)NCC(=O)O)C(C)C` [Chem. 8, N{ε26}-[2-[2-[2-[[2-[2-[2-[[(4S)-4-carboxy-4-(17-carboxyheptadeca-noylamino)butanoyl]amino]ethoxy]ethoxy]acetyl]amino]ethoxy]ethoxy]acetyl]-N{ε}-[2-[2-[2-[[2-[2-[2-[[(4S)-4-carboxy-4-[10-(3-carboxyphenoxy)decanoylamino]butanoyl]amino]ethoxy]ethoxy]acetyl]amino]ethoxy]ethoxy]acetyl]Lys-Thz-[Aib8,Arg34]-GLP-1-(7-37)-peptide], the half-life (buffer) was 175 h.

In the case of “N{ε26}-[2-[2-[2-[[2-[2-[2-[[(4S)-4-carboxy-4-(17-carboxyheptadeca-noylamino)butanoyl]amino]ethoxy]ethoxy]acetyl]amino]ethoxy]ethoxy]acetyl]-N{ε}-[(2S)-2-[[(4S)-4-carboxy-4-(17-carboxyheptadecanoylamino)butanoyl]amino]-3-hydroxypropanoyl]Lys-Thz-[Aib8,Arg34]-GLP-1-(7-37)-peptide [Chem. 18]”, the Conversion half-life was 168 h.

By half-life is commonly meant the time in which the quantity being followed falls by half.
